Source: ChEMBL document CHEMBL1201862, “PubChem BioAssay data set” (2004)
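All cell lines were grown in 96-well plates and treated with compound for 48 hours. GI50 = concentration required for 50% inhibition of growth.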 The source made the active and inactive calls. No stated cut-off is given here; in the data, active = GI50 up to about 1.1 µM and inactive = higher.

What was measured:
Assay in all cases: NCI tumour cell line growth inhibition, 48 h
ACHN = system: ACHN
BT-549 = system: BT-549
CAKI-1 = system: CAKI-1
HCT-116 = system: HCT-116
HT-29 = system: HT-29
IGROV-1 = system: IGROV-1
K562 = system: K562
MDA-MB-435 = system: MDA-MB-435
NCI-H226 = system: NCI-H226
NCI-H23 = system: NCI-H23
NCI-H460 = system: NCI-H460
NCI-H522 = system: NCI-H522
OVCAR-3 = system: OVCAR-3
PC-3 = system: PC-3
SN12C = system: SN12C
TK-10 = system: TK-10
UACC-257 = system: UACC-257
UACC-62 = system: UACC-62

Compound	GI50 (ACHN)	GI50 (BT-549)	GI50 (CAKI-1)	GI50 (HCT-116)	GI50 (HT-29)	GI50 (IGROV-1)	GI50 (K562)	GI50 (MDA-MB-435)	GI50 (NCI-H226)	GI50 (NCI-H23)	GI50 (NCI-H460)	GI50 (NCI-H522)	GI50 (OVCAR-3)	GI50 (PC-3)	GI50 (SN12C)	GI50 (TK-10)	GI50 (UACC-257)	GI50 (UACC-62)
C[C@]12CC[C@H]3[C@@H](CC[C@]4(O)C[C@@H](O)CC[C@]34CO)[C@@]1(O)CC[C@@H]2C1=CC(=O)OC1 [STROPHANTHIDOL]	0.467 µM (active)	1.51 µM (inactive)	0.494 µM (active)	0.553 µM (active)	1.94 µM (inactive)	2.79 µM (inactive)	2.21 µM (inactive)	2.57 µM (inactive)	4.03 µM (inactive)	1.48 µM (inactive)	0.431 µM (active)	0.447 µM (active)	0.993 µM (active)	2 µM (inactive)	3.47 µM (inactive)	1.52 µM (inactive)	2.99 µM (inactive)	3.52 µM (inactive)
CC1(C)CC(=O)C(CCC(=O)/C=C/c2ccccc2)C(=O)C1	98.9 µM (inactive)	> 100 µM (inactive)	> 100 µM (inactive)	> 100 µM (inactive)	> 100 µM (inactive)	> 100 µM (inactive)	> 100 µM (inactive)	> 100 µM (inactive)	> 100 µM (inactive)	> 100 µM (inactive)	> 100 µM (inactive)	> 100 µM (inactive)	> 100 µM (inactive)	> 100 µM (inactive)	> 100 µM (inactive)	> 100 µM (inactive)	> 100 µM (inactive)	> 100 µM (inactive)
CSc1cc(-c2ccccn2)nc(-c2ccccn2)c1	0.0334 µM (active)	0.0536 µM (active)	0.065 µM (active)	0.0682 µM (active)	0.149 µM (active)	0.102 µM (active)	0.248 µM (active)	0.327 µM (active)	0.0395 µM (active)	0.398 µM (active)	0.0541 µM (active)	0.385 µM (active)	0.0279 µM (active)	0.092 µM (active)	0.0991 µM (active)	0.0401 µM (active)	0.481 µM (active)	0.176 µM (active)
COc1cc2c(cc1OC)[C@@H]1[C@H](C#N)C(=O)C(C)(C)N1CC2	> 100 µM (inactive)	> 100 µM (inactive)	> 100 µM (inactive)	> 100 µM (inactive)	> 100 µM (inactive)	> 100 µM (inactive)	> 100 µM (inactive)	> 100 µM (inactive)	> 100 µM (inactive)	> 100 µM (inactive)	> 100 µM (inactive)	> 100 µM (inactive)	> 100 µM (inactive)	> 100 µM (inactive)	> 100 µM (inactive)	> 100 µM (inactive)	> 100 µM (inactive)	> 100 µM (inactive)
c1ccc(C2=Nc3cccc4cccc(c34)N2)cc1	26.2 µM (inactive)	> 44.2 µM (inactive)	37.2 µM (inactive)	23.3 µM (inactive)	43.5 µM (inactive)	> 54.6 µM (inactive)	32 µM (inactive)	48.8 µM (inactive)	> 78.3 µM (inactive)	> 60.5 µM (inactive)	57 µM (inactive)	12.2 µM (inactive)	23.7 µM (inactive)	22.8 µM (inactive)	> 78.7 µM (inactive)	48.9 µM (inactive)	> 69.5 µM (inactive)	37.9 µM (inactive)
N#Cc1c(-c2nc3ccccc3s2)c(=O)oc2cc(O)ccc12	25 µM (inactive)	16.7 µM (inactive)	17.5 µM (inactive)	31.5 µM (inactive)	13 µM (inactive)	15.3 µM (inactive)	31.8 µM (inactive)	27.8 µM (inactive)	41 µM (inactive)	24.8 µM (inactive)	27.8 µM (inactive)	13.2 µM (inactive)	2.25 µM (inactive)	34.4 µM (inactive)	42.3 µM (inactive)	> 100 µM (inactive)	24.3 µM (inactive)	> 100 µM (inactive)
C/C(=N\Nc1nc2ccccc2s1)c1cccc[n+]1[O-]	37.1 µM (inactive)	> 100 µM (inactive)	32.4 µM (inactive)	7.55 µM (inactive)	41.5 µM (inactive)	21.7 µM (inactive)	31.4 µM (inactive)	99.1 µM (inactive)	55.2 µM (inactive)	47.3 µM (inactive)	46.2 µM (inactive)	26.7 µM (inactive)	24.8 µM (inactive)	33 µM (inactive)	48.9 µM (inactive)	17 µM (inactive)	40.1 µM (inactive)	50.1 µM (inactive)
O=C(O)CCSc1ncnc2[nH]cnc12	> 100 µM (inactive)	> 100 µM (inactive)	> 100 µM (inactive)	> 100 µM (inactive)	> 100 µM (inactive)	> 100 µM (inactive)	> 100 µM (inactive)	> 100 µM (inactive)	64.7 µM (inactive)	> 100 µM (inactive)	> 100 µM (inactive)	> 100 µM (inactive)	> 100 µM (inactive)	> 100 µM (inactive)	> 100 µM (inactive)	> 100 µM (inactive)	> 100 µM (inactive)	> 100 µM (inactive)
